Drawing on PubChem BioAssay AID1259407 (Chemical Carcinogenesis Research Information System (CCRIS), 2018), this text covers mutagenic call for 8 compounds.

The source made the active and inactive calls. No rule for the calls is given here.

In this data set the test system is CCRIS mutagenicity, Ames/micronucleus/aberration tests. Briefly: CCRIS mutagenicity studies.
The mark [1] stands for this setting: Test System: AMES SALMONELLA TYPHIMURIUM, Strain/Indicator: TA98, Metabolic Activation: NONE, Method: STANDARD PLATE.
[2] abbreviates: Test System: AMES SALMONELLA TYPHIMURIUM, Strain/Indicator: TA100, Metabolic Activation: NONE, Method: STANDARD PLATE.
Setting [3] is: Test System: AMES SALMONELLA TYPHIMURIUM, Strain/Indicator: TA100, Metabolic Activation: NONE, Method: PREINCUBATION
[4] abbreviates: Test System: AMES SALMONELLA TYPHIMURIUM, Strain/Indicator: TA1535, Metabolic Activation: NONE, Method: PREINCUBATION

Take `Nc1c2ccccc2cc2ccccc12`: the mutagenic call is, setting by setting: (Test System: AMES SALMONELLA TYPHIMURIUM, Strain/Indicator: TA98, Metabolic Activation: RAT, LIVER, S-9, AROCLOR 1254 (2%), Method: STANDARD PLATE) “active; positive”; (Test System: AMES SALMONELLA TYPHIMURIUM, Strain/Indicator: TA98, Metabolic Activation: RAT, LIVER, S-9, AROCLOR 1254 (4%), Method: STANDARD PLATE) “active; positive”; (Test System: AMES SALMONELLA TYPHIMURIUM, Strain/Indicator: TA100, Metabolic Activation: RAT, LIVER, S-9, AROCLOR 1254 (2%), Method: STANDARD PLATE) “active; positive”; (Test System: AMES SALMONELLA TYPHIMURIUM, Strain/Indicator: TA1535, Metabolic Activation: RAT, LIVER, S-9, AROCLOR 1254 (2%), Method: STANDARD PLATE) “inactive; negative”; (Test System: AMES SALMONELLA TYPHIMURIUM, Strain/Indicator: TA1537, Metabolic Activation: RAT, LIVER, S-9, AROCLOR 1254 (2%), Method: STANDARD PLATE) “active; positive”.

As for `COc1cc(C=O)ccc1O`, the mutagenic call runs as follows: under setting [1], “inactive; negative”; (Test System: AMES SALMONELLA TYPHIMURIUM, Strain/Indicator: TA98, Metabolic Activation: RAT, LIVER, S-9, AROCLOR 1254, Method: STANDARD PLATE) “inactive; negative”; under setting [2], “inactive; negative”; (Test System: AMES SALMONELLA TYPHIMURIUM, Strain/Indicator: TA100, Metabolic Activation: RAT, LIVER, S-9, AROCLOR 1254, Method: STANDARD PLATE) “inactive; negative”; (Test System: AMES SALMONELLA TYPHIMURIUM, Strain/Indicator: TA1535, Metabolic Activation: RAT, LIVER, S-9, AROCLOR 1254, Method: STANDARD PLATE) “inactive; negative”; (Test System: E. COLI, Strain/Indicator: CM561 LEXA, Metabolic Activation: NONE, Method: STANDARD PLATE) “inactive; negative”. Also, the mutagenic call reads like this: (Test System: E. COLI, Strain/Indicator: CM611 UVRA/LEXA, Metabolic Activation: NONE, Method: STANDARD PLATE) “inactive; negative”; (Test System: E. COLI, Strain/Indicator: WP2 UVRA, Metabolic Activation: NONE, Method: STANDARD PLATE) “inactive; negative”.

On to `c1ccc2c(c1)-c1c(ccc3ccccc13)C1OC21` (configuration not stated), for which the mutagenic call (Test System: AMES SALMONELLA TYPHIMURIUM, Strain/Indicator: TA98, Metabolic Activation: NONE, Method: PREINCUBATION (KCL-CONTAINING MEDIUM)) was “active; positive”; the mutagenic call (Test System: AMES SALMONELLA TYPHIMURIUM, Strain/Indicator: TA98, Metabolic Activation: NONE, Method: PREINCUBATION (KCL-FREE MEDIUM)) was “active; positive”; the mutagenic call (Test System: AMES SALMONELLA TYPHIMURIUM, Strain/Indicator: TA100, Metabolic Activation: NONE, Method: PREINCUBATION (KCL-CONTAINING MEDIUM)) was “active; positive”; the mutagenic call (Test System: AMES SALMONELLA TYPHIMURIUM, Strain/Indicator: TA100, Metabolic Activation: NONE, Method: PREINCUBATION (KCL-FREE MEDIUM)) is “active; positive”.

Regarding `Cl[C@@H]1C2(Cl)C3C4[C@@H]5O[C@@H]5[C@H]5C3[C@@](Cl)(C2(Cl)Cl)[C@]1(Cl)[C@@H]45` (some centres not stated), the mutagenic call runs as follows: (Test System: AMES SALMONELLA TYPHIMURIUM, Strain/Indicator: TA97, Metabolic Activation: HAMSTER, LIVER, S-9, AROCLOR 1254 (10%), Method: PREINCUBATION) “inactive; negative”; (Test System: AMES SALMONELLA TYPHIMURIUM, Strain/Indicator: TA97, Metabolic Activation: HAMSTER, LIVER, S-9, AROCLOR 1254 (30%), Method: PREINCUBATION) “active; positive”; (Test System: AMES SALMONELLA TYPHIMURIUM, Strain/Indicator: TA97, Metabolic Activation: NONE, Method: PREINCUBATION) “inactive; negative”; (Test System: AMES SALMONELLA TYPHIMURIUM, Strain/Indicator: TA97, Metabolic Activation: RAT, LIVER, S-9, AROCLOR 1254 (10 OR 30%), Method: PREINCUBATION) “inactive; negative”; (Test System: AMES SALMONELLA TYPHIMURIUM, Strain/Indicator: TA98, Metabolic Activation: HAMSTER, LIVER, S-9, AROCLOR 1254 (10 OR 30%), Method: PREINCUBATION) “inactive; negative”; (Test System: AMES SALMONELLA TYPHIMURIUM, Strain/Indicator: TA98, Metabolic Activation: NONE, Method: PREINCUBATION) “inactive; negative”. Besides, the mutagenic call reads like this: (Test System: AMES SALMONELLA TYPHIMURIUM, Strain/Indicator: TA98, Metabolic Activation: RAT, LIVER, S-9, AROCLOR 1254 (10 OR 30%), Method: PREINCUBATION) “inactive; negative”; (Test System: AMES SALMONELLA TYPHIMURIUM, Strain/Indicator: TA100, Metabolic Activation: HAMSTER, LIVER, S-9, AROCLOR 1254 (10 OR 30%), Method: PREINCUBATION) “inactive; negative”; under setting [3], “inactive; negative”; (Test System: AMES SALMONELLA TYPHIMURIUM, Strain/Indicator: TA100, Metabolic Activation: RAT, LIVER, S-9, AROCLOR 1254 (10 OR 30%), Method: PREINCUBATION) “inactive; negative”; (Test System: AMES SALMONELLA TYPHIMURIUM, Strain/Indicator: TA1535, Metabolic Activation: HAMSTER, LIVER, S-9, AROCLOR 1254 (10 OR 30%), Method: PREINCUBATION) “inactive; negative”; under setting [4], “inactive; negative”. Moreover, the mutagenic call (Test System: AMES SALMONELLA TYPHIMURIUM, Strain/Indicator: TA1535, Metabolic Activation: RAT, LIVER, S-9, AROCLOR 1254 (10 OR 30%), Method: PREINCUBATION) is “inactive; negative”.

Take `Cc1c(Cl)cnc2ccccc12`: for the setting “Test System: AMES SALMONELLA TYPHIMURIUM, Strain/Indicator: TA100, Metabolic Activation: RAT, LIVER, S-9, Method: PREINCUBATION”, the mutagenic call was “inactive; negative”.

On to `Cc1ccc2nsc(N)c2c1`, for which the mutagenic call reads like this: under setting [1], “inactive; negative”; (Test System: AMES SALMONELLA TYPHIMURIUM, Strain/Indicator: TA98, Metabolic Activation: S-9, Method: STANDARD PLATE) “active; positive”; under setting [2], “inactive; negative”; (Test System: AMES SALMONELLA TYPHIMURIUM, Strain/Indicator: TA100, Metabolic Activation: S-9, Method: STANDARD PLATE) “active; positive”; (Test System: AMES SALMONELLA TYPHIMURIUM, Strain/Indicator: TA1535, Metabolic Activation: NONE, Method: STANDARD PLATE) “inactive; negative”; (Test System: AMES SALMONELLA TYPHIMURIUM, Strain/Indicator: TA1535, Metabolic Activation: S-9, Method: STANDARD PLATE) “inactive; negative”. For the same compound, the mutagenic call (Test System: AMES SALMONELLA TYPHIMURIUM, Strain/Indicator: TA1537, Metabolic Activation: NONE, Method: STANDARD PLATE) is “inactive; negative” and the mutagenic call (Test System: AMES SALMONELLA TYPHIMURIUM, Strain/Indicator: TA1537, Metabolic Activation: S-9, Method: STANDARD PLATE) is “active; positive”.

For the compound `COc1c(O)cc2c3c1-c1ccccc1C[C@H]3N(C)CC2`, the mutagenic call is, setting by setting: (Test System: AMES SALMONELLA TYPHIMURIUM, Strain/Indicator: TA98, Metabolic Activation: RAT, LIVER, S-9, PHENOBARBITAL AND BETA-NAPHTHOFLAVONE, Method: PREINCUBATION) “active; positive”; (Test System: AMES SALMONELLA TYPHIMURIUM, Strain/Indicator: TA100, Metabolic Activation: RAT, LIVER, S-9, PHENOBARBITAL AND BETA-NAPHTHOFLAVONE, Method: PREINCUBATION) “active; positive”.

Turning to `CCCCCCC(C)(C)C(=O)OCC1CO1` (configuration not stated), the mutagenic call runs as follows: (Test System: AMES SALMONELLA TYPHIMURIUM, Strain/Indicator: TA100, Metabolic Activation: HAMSTER, LIVER, S-9, AROCLOR 1254 (30%), Method: PREINCUBATION) “active; positive”; under setting [3], “inactive; negative”; (Test System: AMES SALMONELLA TYPHIMURIUM, Strain/Indicator: TA100, Metabolic Activation: RAT, LIVER, S-9, AROCLOR 1254 (30%), Method: PREINCUBATION) “active; positive”; (Test System: AMES SALMONELLA TYPHIMURIUM, Strain/Indicator: TA1535, Metabolic Activation: HAMSTER, LIVER, S-9, AROCLOR 1254 (30%), Method: PREINCUBATION) “active; positive”; under setting [4], “inactive; negative”; (Test System: AMES SALMONELLA TYPHIMURIUM, Strain/Indicator: TA1535, Metabolic Activation: RAT, LIVER, S-9, AROCLOR 1254 (30%), Method: PREINCUBATION) “active; positive”.
